Entries after “also recorded” stand apart in the source; their conditions may differ.
Assays:
[1] = intestinal absorption of isoquercetin; type: in vivo; conditions: human intestinal tract; compared with rutin and quercetin aglycone
From the text: Therefore, the increased effectivity of ascorbate protectioin may be caused by the fact that isoquercetin contains a glucose molecule. This glucose molecule seems to be the reason why isoquercetin is able to use the sodium-dependent glucose transport pathway of the intestinal brush-border membrane in its absorption process (Gee et al., 1998).

[2] = earlier pharmacokinetic studies (Hollman and Katan, 1997; Hollman, 1997); cited from earlier work

For `O=c1c(O[C@@H]2O[C@H](CO)[C@@H](O)[C@H](O)[C@H]2O)c(-c2ccc(O)c(O)c2)oc2cc(O)cc(O)c12` [isoquercetin, quercetin-3-O-glucoside], the absorption [1] is listed as “better than that of pure aglycone; also recorded: far better absorption rates in human intestinal tract than rutin or the quercetin aglycone” and the “absorption rate and bioavailability” value [2] is listed as “excellent absorption rate and bioavailability; also recorded: absorbed better than rutin and quercetin”.

Reference: patent US7041652B1, “Ascorbate-isoquercetin compositions” (Merck Patent GmbH, priority 1999, dated 2006)
